Patent US6914045B2, “Glycopeptide antibiotics” (Wyeth Holdings Corporation, priority 2001, dated 2005)

Experiments:
Test in all cases: in vitro antibacterial evaluation, MIC by broth dilution
Type in all cases: cell-based
Enterococcus sp. = conditions: broth dilution, 18 hours at 35° C.; for MIC Enterococcus faecalis (GC 2691): strain GC 2691; for MIC Enterococcus faecalis (GC 3059): strain GC 3059; for MIC Enterococcus faecalis (GC 4552): strain GC 4552; for MIC Enterococcus faecalis (GC 4553): strain GC 4553; for MIC Enterococcus faecalis (GC 4554): strain GC 4554; for MIC Enterococcus faecium (GC 4557): strain GC 4557
In short: (§1)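 MIC, the lowest antibiotic concentration preventing growth, was read across 64-0.06 μg/mL with 5×10^5 CFU/mL inoculum. Method followed NCCLS M7-A2 broth dilution using Mueller-Hinton II; Gram-positive strains covered recent methicillin-, penicillin- and/or vancomycin-resistant clinical isolates.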

Staphylococcus sp. = conditions: broth dilution, 18 hours at 35° C.; for MIC Staphylococcus aureus (ATCC 29213): strain ATCC 29213; for MIC Staphylococcus aureus (GC 1131): strain GC 1131; for MIC Staphylococcus aureus (GC 3051): strain GC 3051; for MIC Staphylococcus aureus (GC 3053): strain GC 3053; for MIC Staphylococcus aureus (GC 4541): strain GC 4541; for MIC Staphylococcus aureus (GC 4542): strain GC 4542; for MIC Staphylococcus aureus-SMITH (GC 4543): strain GC 4543; for MIC Staphylococcus aureus (GC 4544): strain GC 4544; for MIC Staphylococcus aureus (GC 4545): strain GC 4545; for MIC Staphylococcus haemolyticus (GC 4546): strain GC 4546; for MIC Coagulase Negative Staphylococcus (GC 4547): strain GC 4547; for MIC Coagulase Negative Staphylococcus (GC 4548): strain GC 4548; for MIC Coagulase Negative Staphylococcus (GC 4549): strain GC 4549; for MIC Coagulase Negative Staphylococcus (GC 4551): strain GC 4551; for MIC Coagulase Negative Staphylococcus (GC 6257): strain GC 6257
In short: as §1

Streptococcus sp. = conditions: broth dilution, 18 hours at 35° C.; for MIC Streptococcus pyogenes (GC 4563): strain GC 4563; for MIC Streptococcus agalactiae (GC 4564): strain GC 4564; for MIC Streptococcus pneumoniae (GC 4565): strain GC 4565
In short: as §1

Escherichia coli = conditions: 18 hours at 35° C.
In short: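 MIC is the lowest antibiotic concentration (tested 64-0.06 μg/mL) preventing growth of a 5×10^5 CFU/mL inoculum. Determined by broth dilution in Mueller-Hinton II medium following NCCLS standard M7-A2.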

[1] = strain ATCC 25922, broth dilution

CC(c1ccccc1)C1NC(=O)CNC(=O)C(CO)NC(=O)C(C(O)C2CNC(=N)N2C2OC(CO)C(O)C(O)C2O)NC(=O)C(C(O)C2CNC(=N)N2)NC(=O)C(Cc2ccc(O)c(NC=O)c2)NC1=O (stereo not drawn) [Example 18, Cyclo[glycyl-β-methylphenylalanyl-3-formamidotyrosyl-3-(2-iminoimidazolidin-4-yl)seryl-3-(3-hexopyranosyl-2-iminoimidazolidin-4-yl)serylseryl]]
>128 mg/L: MIC Enterococcus faecalis (ATCC 29212) (Enterococcus sp.; strain ATCC 29212) | MIC Enterococcus faecalis (GC 2242) (Enterococcus sp.; strain GC 2242) | MIC Enterococcus faecium (GC 2243) (Enterococcus sp.; strain GC 2243) | MIC Enterococcus faecalis (GC 2691) (Enterococcus sp.) | MIC Enterococcus faecalis (GC 3059) (Enterococcus sp.) | MIC Enterococcus faecalis (GC 4552) (Enterococcus sp.) | MIC Enterococcus faecalis (GC 4554) (Enterococcus sp.) | MIC Enterococcus faecium (GC 4556) (Enterococcus sp.; strain GC 4556) | MIC Enterococcus faecalis (GC 6189) (Enterococcus sp.; strain GC 6189) | MIC Staphylococcus aureus (ATCC 29213) (Staphylococcus sp.) | MIC Staphylococcus aureus (GC 1131) (Staphylococcus sp.) | MIC Staphylococcus aureus (GC 3051) (Staphylococcus sp.) | MIC Staphylococcus aureus (GC 3053) (Staphylococcus sp.) | MIC Staphylococcus aureus (GC 4541) (Staphylococcus sp.) | MIC Staphylococcus aureus (GC 4542) (Staphylococcus sp.) | MIC Staphylococcus aureus-SMITH (GC 4543) (Staphylococcus sp.) | MIC Staphylococcus aureus (GC 4544) (Staphylococcus sp.) | MIC Staphylococcus aureus (GC 4545) (Staphylococcus sp.) | MIC Coagulase Negative Staphylococcus (GC 4551) (Staphylococcus sp.)
16 mg/L: MIC Escherichia coli (GC 4560) (Escherichia coli; strain GC 4560, broth dilution)
64 mg/L: MIC Enterococcus faecium (GC 4557) (Enterococcus sp.) | MIC Coagulase Negative Staphylococcus (GC 4549) (Staphylococcus sp.) | MIC Streptococcus pneumoniae (GC 1894) (Streptococcus sp.; strain GC 1894) | MIC Escherichia coli (ATCC 25922) (Escherichia coli; [1])
32 mg/L: MIC Escherichia coli (GC 4559) (Escherichia coli; strain GC 4559, broth dilution)
128 mg/L: MIC Enterococcus faecalis (GC 4553) (Enterococcus sp.) | MIC Enterococcus avium (GC 4558) (Enterococcus sp.; strain GC 4558) | MIC Staphylococcus haemolyticus (GC 4546) (Staphylococcus sp.) | MIC Coagulase Negative Staphylococcus (GC 4547) (Staphylococcus sp.) | MIC Coagulase Negative Staphylococcus (GC 4548) (Staphylococcus sp.) | MIC Coagulase Negative Staphylococcus (GC 6257) (Staphylococcus sp.) | MIC Streptococcus pneumoniae (ATCC 6301) (Streptococcus sp.; strain ATCC 6301) | MIC Streptococcus pyogenes (GC 4563) (Streptococcus sp.) | MIC Streptococcus agalactiae (GC 4564) (Streptococcus sp.) | MIC Streptococcus pneumoniae (GC 4565) (Streptococcus sp.)

CC(c1ccccc1)C1NC(=O)CNC(=O)C(CO)NC(=O)C(C(O)C2CNC(=N)N2C2OC(CO)C(O)C(O)C2O)NC(=O)C(C(O)C2CNC(=N)N2)NC(=O)C(Cc2ccc(OC3OC(CO)C(OC4OC5COC6(CCCCCCCCCCC6)OC5C(O)C4O)C(O)C3O)cc2)NC1=O (stereo not shown) [Example 209]
<0.06 mg/L: MIC Streptococcus pneumoniae (ATCC 6301) (Streptococcus sp.) | MIC Streptococcus pneumoniae (GC 1894) (Streptococcus sp.) | MIC Streptococcus pneumoniae (ATCC 6301) (Streptococcus sp.; inoculum 5×10^5 CFU/mL, strain ATCC 6301) | MIC Streptococcus pneumoniae (GC 1894) (Streptococcus sp.; inoculum 5×10^5 CFU/mL, strain GC 1894)
2 mg/L: MIC Staphylococcus aureus (GC 1131) (Staphylococcus sp.) | MIC Staphylococcus aureus (GC 4541) (Staphylococcus sp.) | MIC Coagulase Negative Staphylococcus (GC 6257) (Staphylococcus sp.)
>64 mg/L: MIC Escherichia coli (GC 4559) (Escherichia coli)
4 mg/L: MIC Enterococcus avium (GC 4558) (Enterococcus sp.) | MIC Enterococcus faecalis (ATCC 29212) (Enterococcus sp.) | MIC Enterococcus faecalis (GC 2242) (Enterococcus sp.) | MIC Enterococcus faecium (GC 4556) (Enterococcus sp.) | MIC Enterococcus faecalis (ATCC 29212) (Enterococcus sp.; inoculum 5×10^5 CFU/mL, strain ATCC 29212) | MIC Enterococcus faecalis (GC 2242) (Enterococcus sp.; inoculum 5×10^5 CFU/mL, strain GC 2242) | MIC Enterococcus faecium (GC 4556) (Enterococcus sp.; inoculum 5×10^5 CFU/mL, strain GC 4556) | MIC Enterococcus avium (GC 4558) (Enterococcus sp.; inoculum 5×10^5 CFU/mL, strain GC 4558) | MIC Staphylococcus aureus (ATCC 29213) (Staphylococcus sp.) | MIC Coagulase Negative Staphylococcus (GC 4547) (Staphylococcus sp.) | MIC Escherichia coli (GC 4560) (Escherichia coli)
1 mg/L: MIC Enterococcus faecalis (GC 6189) (Enterococcus sp.) | MIC Enterococcus faecium (GC 2243) (Enterococcus sp.) | MIC Enterococcus faecium (GC 2243) (Enterococcus sp.; inoculum 5×10^5 CFU/mL, strain GC 2243) | MIC Enterococcus faecalis (GC 6189) (Enterococcus sp.; inoculum 5×10^5 CFU/mL, strain GC 6189) | MIC Staphylococcus aureus-SMITH (GC 4543) (Staphylococcus sp.) | MIC Coagulase Negative Staphylococcus (GC 4548) (Staphylococcus sp.) | MIC Coagulase Negative Staphylococcus (GC 4549) (Staphylococcus sp.)
64 mg/L: MIC Escherichia coli (ATCC 25922) (Escherichia coli)

CC(=O)Nc1cc(CC2NC(=O)C(C(C)c3ccccc3)NC(=O)CNC(=O)C(CO)NC(=O)C(C(O)C3CNC(=N)N3C3OC(CO)C(O)C(O)C3O)NC(=O)C(C(O)C3CNC(=N)N3)NC2=O)ccc1O (stereo not drawn) [Example 13, Cyclo[-glycyl-β-methylphenylalanyl-3-acetamidotyrosyl-3-(2-iminoimidazolidin-4-yl)seryl-3-(3-hexopyranosyl-2-iminoimidazolodin-4-yl)serylseryl]]
8 mg/L: MIC Streptococcus pyogenes (GC 4563) (Streptococcus sp.)
64 mg/L: MIC Enterococcus faecalis (GC 2242) (Enterococcus sp.; strain GC 2242) | MIC Enterococcus faecium (GC 2243) (Enterococcus sp.; strain GC 2243) | MIC Enterococcus faecalis (GC 4553) (Enterococcus sp.) | MIC Enterococcus faecium (GC 4556) (Enterococcus sp.; strain GC 4556) | MIC Enterococcus faecium (GC 4557) (Enterococcus sp.) | MIC Enterococcus avium (GC 4558) (Enterococcus sp.; strain GC 4558) | MIC Staphylococcus aureus (ATCC 29213) (Staphylococcus sp.) | MIC Staphylococcus aureus (GC 1131) (Staphylococcus sp.) | MIC Staphylococcus aureus (GC 3051) (Staphylococcus sp.) | MIC Staphylococcus aureus (GC 3053) (Staphylococcus sp.) | MIC Staphylococcus aureus (GC 4541) (Staphylococcus sp.) | MIC Staphylococcus aureus (GC 4542) (Staphylococcus sp.) | MIC Staphylococcus aureus-SMITH (GC 4543) (Staphylococcus sp.) | MIC Staphylococcus aureus (GC 4544) (Staphylococcus sp.) | MIC Staphylococcus aureus (GC 4545) (Staphylococcus sp.) | MIC Staphylococcus haemolyticus (GC 4546) (Staphylococcus sp.) | MIC Coagulase Negative Staphylococcus (GC 4547) (Staphylococcus sp.) | MIC Coagulase Negative Staphylococcus (GC 4548) (Staphylococcus sp.) | MIC Coagulase Negative Staphylococcus (GC 4551) (Staphylococcus sp.)
32 mg/L: MIC Coagulase Negative Staphylococcus (GC 4549) (Staphylococcus sp.) | MIC Coagulase Negative Staphylococcus (GC 6257) (Staphylococcus sp.) | MIC Escherichia coli (GC 4560) (Escherichia coli; strain GC 4560, broth dilution)
16 mg/L: MIC Streptococcus agalactiae (GC 4564) (Streptococcus sp.)
2 mg/L: MIC Streptococcus pneumoniae (GC 1894) (Streptococcus sp.; strain GC 1894)
>64 mg/L: MIC Enterococcus faecalis (ATCC 29212) (Enterococcus sp.; strain ATCC 29212) | MIC Enterococcus faecalis (GC 2691) (Enterococcus sp.) | MIC Enterococcus faecalis (GC 3059) (Enterococcus sp.) | MIC Enterococcus faecalis (GC 4552) (Enterococcus sp.) | MIC Enterococcus faecalis (GC 4554) (Enterococcus sp.) | MIC Enterococcus faecalis (GC 6189) (Enterococcus sp.; strain GC 6189) | MIC Escherichia coli (ATCC 25922) (Escherichia coli; [1]) | MIC Escherichia coli (GC 4559) (Escherichia coli; strain GC 4559, broth dilution)
4 mg/L: MIC Streptococcus pneumoniae (ATCC 6301) (Streptococcus sp.; strain ATCC 6301) | MIC Streptococcus pneumoniae (GC 4565) (Streptococcus sp.)
